Here are results for one compound from publication PMC2229492 (The Journal of General Physiology, 2000).

In assay [1] the target is T1, rat olfactory CNG (OLF) channel (Rattus norvegicus, UniProt Q00195).
T1 sequence (Q00195 1-664): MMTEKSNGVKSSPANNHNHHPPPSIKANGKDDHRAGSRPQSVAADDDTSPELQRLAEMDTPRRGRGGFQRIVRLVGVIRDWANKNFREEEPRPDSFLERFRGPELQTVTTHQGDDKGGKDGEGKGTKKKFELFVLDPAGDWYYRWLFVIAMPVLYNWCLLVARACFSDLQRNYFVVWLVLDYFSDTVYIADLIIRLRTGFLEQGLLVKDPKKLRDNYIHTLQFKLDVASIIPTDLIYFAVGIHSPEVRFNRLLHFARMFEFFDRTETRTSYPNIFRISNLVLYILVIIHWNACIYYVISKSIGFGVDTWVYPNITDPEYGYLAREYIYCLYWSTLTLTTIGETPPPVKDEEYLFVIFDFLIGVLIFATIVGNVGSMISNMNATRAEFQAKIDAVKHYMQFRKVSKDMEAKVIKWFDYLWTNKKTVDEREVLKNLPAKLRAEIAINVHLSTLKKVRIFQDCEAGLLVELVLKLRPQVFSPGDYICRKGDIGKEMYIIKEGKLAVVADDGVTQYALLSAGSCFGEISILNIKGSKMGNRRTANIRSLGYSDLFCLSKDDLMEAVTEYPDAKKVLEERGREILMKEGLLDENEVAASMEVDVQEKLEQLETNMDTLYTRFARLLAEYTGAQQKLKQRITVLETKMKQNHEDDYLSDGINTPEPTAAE
The experiment in a line: inside-out patch recording, cGMP dose-response. Format: cell-based.

For assay [2], the target named is T2, rat olfactory CNG (OLF) channel (Rattus norvegicus, UniProt Q00195, W332Y).
T2 sequence (Q00195 1-664 W332Y): T1 sequence (Q00195 1-664) with W332Y
The experiment in a line: inside-out patch recording, cGMP dose-response. Format: cell-based.

Molecules are shown by their SMILES. Substitutions are numbered along the chain they refer to.

Take `Nc1nc2c(ncn2[C@@H]2O[C@@H]3COP(=O)(O)O[C@H]3[C@H]2O)c(=O)[nH]1` [cGMP]: the EC50 in assay [1] was found to be 2.47 µM; in assay [2], 17.7 µM.

A word on the EC50: it is the concentration giving half of the maximal effect. A higher EC50 goes with weaker potency.
